Test results from patent US20210221848A1, “POLYMYXIN DERIVATIVES AND THEIR USE IN COMBINATION THERAPY TOGETHER WITH DIFFERENT ANTIBIOTICS” (priority 2014, published 2021).
Like-named read-outs stand apart in the source and are kept apart here.

Assays:
E. coli [1] = assay: MIC in the presence of a fixed concentration (2 μg/mL) of Rifampicin; type: cell-based, Escherichia coli; settings: Rifampicin 2 μg/mL, Table 5C
A. baumannii [2] = assay: MIC in the presence of […] of rifampicin; type: cell-based, Acinetobacter baumannii; settings: A. baumannii ATCC BAA-747, Table 5C
E. coli [3] = assay: MIC in 1:1 (wt:wt) combination with Rifampicin; type: cell-based, Escherichia coli; settings: 1:1 (wt:wt) with Rifampicin, total drug concentration
Method: (§1) The inoculum was prepared by making a direct suspension of isolated colonies (selected from an 18-24 hour Mueller-Hinton agar plate) adjusted to the 0.5 McFarland standard. […] The assays were performed in duplicate. […] In cases where the duplicate values varied by less than 2-fold, the lower of the two values is reported. If a variation of greater than 2-fold was observed, the assay was considered non-valid. Several of the compounds were subjected to multiple tests, and where this is the case, the MIC reflects the modal value obtained.
(§2) MIC values (microgram/mL) refer to the total drug concentration (i.e. test agent plus Rifampicin).

K. pneumoniae [4] = assay: MIC in 1:1 (wt:wt) combination with Rifampicin; type: cell-based, Klebsiella pneumoniae; settings: 1:1 (wt:wt) with Rifampicin, total drug concentration
Method: as §1, §2

A. baumannii [5] = assay: MIC in 1:1 (wt:wt) combination with Rifampicin; type: cell-based, Acinetobacter baumannii; settings: 1:1 (wt:wt) with Rifampicin, total drug concentration
Method: as §1, §2

[6] = system: E. coli strains with elevated MICs to Polymyxin B; assay: MIC against strains with elevated MICs to Polymyxin B; type: cell-based, Escherichia coli; settings: for MIC E. coli 058: strain 058, elevated MIC to Polymyxin B; for MIC E. coli 059: strain 059, elevated MIC to Polymyxin B; for MIC E. coli 060: strain 060, elevated MIC to Polymyxin B; for MIC E. coli 061: strain 061, elevated MIC to Polymyxin B
In short: (§3)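 Polymyxin B-resistant isolates were inoculated from 0.5 McFarland suspensions of 18-24 hour Mueller-Hinton agar colonies. Testing was done twice per compound, and results disagreeing by over 2-fold were discarded as non-valid. For compounds assayed several times, the modal MIC is given.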

[7] = system: K. pneumoniae strains with elevated MICs to Polymyxin B; assay: as above; type: cell-based, Klebsiella pneumoniae; settings: for MIC K. pneumoniae 062: strain 062, elevated MIC to Polymyxin B; for MIC K. pneumoniae 063: strain 063, elevated MIC to Polymyxin B; for MIC K. pneumoniae 064: strain 064, elevated MIC to Polymyxin B; for MIC K. pneumoniae 655: strain 655, elevated MIC to Polymyxin B
In short: as §3

HK-2 cell line = assay: In vitro renal cell toxicity assay (resazurin reduction); settings: HK-2 cell IC50 expressed relative to the value for polymyxin B
Method: MICs were determined as described herein. HK-2 cell IC50 values were determined as described herein. Values are reported relative to Polymyxin B.

P. aeruginosa ATCC 27853 = assay: In vivo efficacy, thigh infection in mice, IV dosing, 9 h model; set-up: species or system Pseudomonas aeruginosa; settings: mouse thigh
Method: Compounds were administered in solution by intravenous (IV) bolus injection into the lateral tail vein. […] At 1 hour post infection, 4 animals were humanely euthanized using pentabarbitone overdose to provide a pre-treatment control group. At 9 hours post infection, the clinical condition of all animals was assessed prior to them being humanely euthanized by pentabarbitone overdose. Animal weight was determined before both thighs were removed and weighed individually. Individual thigh tissue samples were homogenized in ice cold sterile phosphate buffered saline. Thigh homogenates were then quantitatively cultured onto cystine lactose electrolyte deficient (CLED) agar and incubated at 37° C. for 24 hours before colonies were counted.

[8] = system: Acinetobacter baumannii NCTC 13301; settings: mouse lungs, A. baumannii NCTC 13301, SC at 2, 6 and 10 h post-infection, 16 h infection model
Method: On Day 0, animals were infected with 0.04 mL inoculum by intranasal instillation into mouse nostrils and were kept in an upright position on a string rack for ˜10 min post-infection. […] The vehicle control group (7 mice) was treated with 0.9% saline for injection at 2, 6 and 10 h post-infection.
Sixteen hours after infection, the mice were euthanized humanely. The lungs of each animal were harvested, homogenized and quantitatively cultured onto CLED agar for CFU determination. Decrease of the total CFU compared to control counts at 16 h post-infection was determined for each dose group.

E. coli [9] = system: E. coli
K. pneumoniae [10] = system: K. pneumoniae
A. baumannii [11] = system: A. baumannii
[12] = system: Escherichia coli ATCC 25922; settings: mouse thigh, 3.4 mg/kg/dose free base IV at 1, 3.5 and 6 h post-infection, 9 h model
[13] = system: Acinetobacter baumannii NCTC 13301; settings: mouse thigh, 16 h model

Polymyxin B [PMB, reference compound]
MIC in combination with Rifampicin, E. coli ATCC 25922 (E. coli [1]; E. coli ATCC 25922): ≤0.015 micrograms/mL
MIC in combination with Rifampicin, E. coli NCTC 13441 (E. coli [1]; E. coli NCTC 13441): 0.03 micrograms/mL
MIC in combination with Rifampicin, A. baumannii ATCC BAA-747 (A. baumannii [2]): 0.03 micrograms/mL
MIC in 1:1 combination with rifampicin, E. coli 058 (E. coli [3]; E. coli 058): 1 microgram/mL
MIC in 1:1 combination with rifampicin, E. coli 059 (E. coli [3]; E. coli 059): ≤0.5 microgram/mL
MIC in 1:1 combination with rifampicin, E. coli 060 (E. coli [3]; E. coli 060): 1 microgram/mL
MIC in 1:1 combination with rifampicin, E. coli ATCC 25922 (E. coli [3]; E. coli ATCC 25922): ≤0.5 microgram/mL
MIC in 1:1 combination with rifampicin, K. pneumoniae 062 (K. pneumoniae [4]; K. pneumoniae 062): 1 microgram/mL
MIC in 1:1 combination with rifampicin, K. pneumoniae CCUG 59348 (K. pneumoniae [4]; K. pneumoniae CCUG 59348): 1 microgram/mL
MIC in 1:1 combination with rifampicin, A. baumannii 053 (A. baumannii [5]; A. baumannii 053): ≤0.5 microgram/mL
MIC in 1:1 combination with rifampicin, A. baumannii 056 (A. baumannii [5]; A. baumannii 056): ≤0.5 microgram/mL
MIC E. coli 058 ([6]; Table 6D): 4 micrograms/mL
MIC E. coli 058 ([6]; Table 6F): 4 micrograms/mL
MIC E. coli 059 ([6]; Table 6D): 4 micrograms/mL
MIC E. coli 059 ([6]; Table 6F): 4 micrograms/mL
MIC E. coli 060 ([6]; Table 6D): 4 micrograms/mL
MIC E. coli 060 ([6]; Table 6F): 4 micrograms/mL
MIC E. coli 061 ([6]; Table 6D): 16 micrograms/mL
MIC E. coli 061 ([6]; Table 6F): 16 micrograms/mL
MIC K. pneumoniae 062 ([7]; Table 6D): 128 micrograms/mL
MIC K. pneumoniae 062 ([7]; Table 6F): 128 micrograms/mL
MIC K. pneumoniae 063 ([7]; Table 6D): 32 micrograms/mL
MIC K. pneumoniae 063 ([7]; Table 6F): 32 micrograms/mL
MIC K. pneumoniae 064 ([7]; Table 6D): 8 micrograms/mL
MIC K. pneumoniae 064 ([7]; Table 6F): 8 micrograms/mL
MIC K. pneumoniae 655 ([7]; Table 6D): 32 micrograms/mL
MIC K. pneumoniae 655 ([7]; Table 6F): 32 micrograms/mL
HK-2 rel to PMB (HK-2 cell line): 1
Log reduction from vehicle (CFU/g) (P. aeruginosa ATCC 27853; dose 0.85 mg/kg drug base IV at 1, 3.5 and 6 h post-infection): 1.19 log10 CFU/g
Log reduction from vehicle (CFU/g) (P. aeruginosa ATCC 27853; dose 3.4 mg/kg drug base IV at 1, 3.5 and 6 h post-infection): 4.23 log10 CFU/g
Mean log10 CFU reduction vs. control ([8]; 2.6 mg/kg/dose free base): 0.79 log10 CFU
Mean log10 CFU reduction vs. control ([8]; 8.6 mg/kg/dose free base): 0.58 log10 CFU
Mean log10 CFU reduction vs. control ([8]; 17.2 mg/kg/dose free base): 0.54 log10 CFU
Mean log10 CFU reduction vs. control ([8]; 25.8 mg/kg/dose free base): 1.10 log10 CFU
MIC (E. coli [9]; E. coli ATCC 25922): 0.25 µg/mL
MIC, E. coli ATCC 25922 (E. coli [9]; E. coli ATCC 25922, absence of a second agent, Table 6B): 0.25 micrograms/mL
MIC (E. coli [9]; E. coli NCTC 13441): 0.25 µg/mL
MIC, E. coli NCTC 13441 (E. coli [9]; E. coli NCTC 13441, absence of a second agent, Table 6B): 0.25 micrograms/mL
MIC, E. coli ATCC 25922 (E. coli [9]; strain ATCC 25922, compound alone): 0.25 micrograms/mL
MIC E. coli CCUG 59342 (E. coli [9]; strain CCUG 59342, compound alone): 0.125 micrograms/mL
MIC (K. pneumoniae [10]; K. pneumoniae ATCC 4352): 0.25 µg/mL
MIC, K. pneumoniae ATCC 4352 (K. pneumoniae [10]; K. pneumoniae ATCC 4352, absence of a second agent, Table 6B): 0.25 micrograms/mL
MIC (K. pneumoniae [10]; K. pneumoniae ATCC BAA-2146): 0.5 µg/mL
MIC, K. pneumoniae ATCC BAA-2146 (K. pneumoniae [10]; K. pneumoniae ATCC BAA-2146, absence of a second agent, Table 6B): 0.5 micrograms/mL
MIC, K. pneumoniae ATCC 4352 (K. pneumoniae [10]; strain ATCC 4352, compound alone): 0.25 micrograms/mL
MIC, K. pneumoniae ATCC BAA-2146 (K. pneumoniae [10]; strain ATCC BAA-2146, compound alone): 0.5 micrograms/mL
MIC (A. baumannii [11]; A. baumannii ATCC BAA-747): 0.25 µg/mL
MIC, A. baumannii ATCC BAA-747 (A. baumannii [11]; A. baumannii ATCC BAA-747, absence of a second agent, Table 6B): 0.25 micrograms/mL
MIC (A. baumannii [11]; A. baumannii NCTC 13424): 0.5 µg/mL
MIC, A. baumannii NCTC 13424 (A. baumannii [11]; A. baumannii NCTC 13424, absence of a second agent, Table 6B): 0.5 micrograms/mL
MIC, A. baumannii ATCC BAA-747 (A. baumannii [11]; strain ATCC BAA-747, compound alone): 0.25 micrograms/mL
MIC, A. baumannii NCTC 13424 (A. baumannii [11]; strain NCTC 13424, compound alone): 0.5 micrograms/mL
Mean log10 CFU reduction vs. control [12]: 4.32 log10 CFU
Mean log10 CFU reduction vs. control ([13]; 0.215 mg/kg/dose free base SC at 2, 6 and 10 h post-infection): 0.17 log10 CFU
Mean log10 CFU reduction vs. control ([13]; 0.86 mg/kg/dose free base SC at 2, 6 and 10 h post-infection): 1.64 log10 CFU
Mean log10 CFU reduction vs. control ([13]; 2.6 mg/kg/dose free base SC at 2, 6 and 10 h post-infection): 5.44 log10 CFU
Mean log10 CFU reduction vs. control ([13]; 8.6 mg/kg/dose free base SC at 2, 6 and 10 h post-infection): 6.15 log10 CFU
Mean log10 CFU reduction vs. control ([13]; 17.2 mg/kg/dose free base SC at 2, 6 and 10 h post-infection): 6.53 log10 CFU
